In experiment [1] the target is recombinant human cathepsin S (Homo sapiens, UniProt P25774). Kind of experiment: Cathepsin S enzyme activity assay. It counts as biochemical. As to conditions: 10 uM Z-Leu-Arg-AMC, pH 4.5, 25° C. Here is the method:
The cysteine protease inhibitor E-64 is assayed in parallel as a positive control.
Human recombinant cathepsin S is incubated with compounds or vehicle (final concentration=1% DMSO vehicle) in the presence of peptide substrate which is 10 uM Z-Leu-Arg-AMC. Compounds are preincubated with the enzyme for 15 minutes at 25° C. and the reaction started by the addition of substrate. Incubation with substrate proceeds for 30 minutes at 25° C. Incubation buffer is 20 mM CH3COONa, pH 4.5, 2.5 mM DTT, 0.05 M NaCl. Cathepsin S-mediated substrate cleavage is quantified using spectofluorimetric quantitation of AMC.

Experiment [2] concerns HCV replicon-containing cells (Huh7/Clone A). In words: HCV replicon assay. It counts as cell-based, Hepatitis C virus. As to conditions: at 25 μM, 48 hours. The text has this: The HCV replicon assay is a cell-culture system that mimics in vivo HCV replication and provides a system to study HCV replication in vitro. It was created by transfecting cloned viral RNA derived from a consensus HCV genomic sequence into human Huh7 hepatoma cells that are semi-permissive for viral RNA production (Lohmann V., Korner F., Koch J.-O., Herian U., Theilmann L. and Bartenschlager R. (1999). Replication of subgenomic Hepatitis C virus RNAs in a hepatoma cell line. Science 285, 110-113 and Blight K. J., Kolykhalov A. A. and Rice C. M. (2000). Efficient initiation of HCV RNA Replication in cell culture. Science 290, […]). These transfected cell lines contain a subgenomic HCV RNA genome that includes (1) the HCV 5′NTR fused to 12 amino acids of the capsid coding region, (2) the neomycin phosphotransferase gene (Neo) as a selectable marker, (3) the internal ribosome entry site (IRES) from encephalomyocarditis virus (EMCV) that directs translation of HCV non-structural proteins (variously NS2 or NS3 to NS5B), and (4) the 3′ NTR. Replicon-containing cells autonomously and persistently replicate HCV RNA that can be measured quantitatively by real-time qPCR. Therefore, the replicon system facilitates quantitative assessment of anti-viral activity by monitoring changes in HCV RNA replication in a cell-based assay.
HCV replicon-containing cells (Huh7/Clone A) were routinely maintained in Clone A growth medium (DMEM medium [Invitrogen], supplemented with 10% Fetal Bovine Serum, 1% Non Essential Amino Acids and 1 g/L G418). Test compounds were dissolved in dimethylsulfoxide (DMSO) to make 200× stock solutions for all doses prior to treatment.
For the HCV replicon assay, Huh7/Clone A cells were trypsinized from culture flasks, seeded in 1 ml of Clone A growth medium without G418 at 4×10^4 cells per well in 24-well plates and incubated at 37° C. in a humidified CO2 (5%) incubator overnight. Following overnight incubation, compound solutions were added into wells in the same volume (5 μl of 200× compound stock per well) to give a final DMSO concentration of 0.5%. Three wells on each plate supplemented with 5 μl of DMSO served as untreated controls. […]
Total RNA eluted in 130 μl of RNase-free dH2O was quantitated by the RiboGreen Assay according to the supplier's protocol (Molecular Probe). […] RNA samples in the black microplate were mixed with 95 μl of diluted RiboGreen reagent (1:250 dilution in TE buffer) and sample fluorescence was measured using a fluorescence microplate reader at standard fluorescein wavelengths (excitation ˜480 nm, emission ˜520 nm). […]
TaqMan quantitative PCR (RT-qPCR) was used to quantitate the amount of HCV replicon RNA in each sample. […]

Where [3] appears, read: Cathepsin S IC50, recombinant human cathepsin S.
Where [4] appears, read: recombinant human cathepsin S, read-out: Cathepsin S IC50.

Like-named read-outs stand apart in the source and are kept apart here.

recombinant human cathepsin S, sequence (P25774 115-331): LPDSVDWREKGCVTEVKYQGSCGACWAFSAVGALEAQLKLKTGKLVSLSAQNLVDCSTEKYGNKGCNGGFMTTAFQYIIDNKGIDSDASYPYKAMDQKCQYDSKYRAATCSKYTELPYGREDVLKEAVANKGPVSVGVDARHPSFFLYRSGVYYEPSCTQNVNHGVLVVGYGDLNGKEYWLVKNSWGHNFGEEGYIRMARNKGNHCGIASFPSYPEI

Regarding `CCC[C@H](NC(=O)[C@@H]1[C@H]2CCC[C@H]2CN1C(=O)[C@@H](NC(C(NC(=O)c1cnccn1)C1CCCCC1)C(F)(F)F)C(C)(C)C)C(=O)C(=O)NC1CC1` (single isomer, unassigned) [Formula I isomer C], the IC50 in experiment [1] (setting [3]) is 2 nM. In addition, the “inhibition of HCV replicon RNA” value in experiment [2] was found to be 34%.

In the case of `CCC[C@H](NC(=O)[C@@H]1[C@H]2CCC[C@H]2CN1C(=O)[C@@H](NC(=O)[C@@H](NC(c1cnccn1)C(F)(F)F)C1CCCCC1)C(C)(C)C)C(=O)C(=O)NC1CC1` (single isomer, unassigned) [Formula I isomer F], in experiment [1] (setting [4]), the IC50 was 1.4 nM.

As for `CCC[C@H](NC(=O)[C@@H]1[C@H]2CCC[C@H]2CN1C(=O)[C@@H](NC(C(NC(=O)c1cnccn1)C1CCCCC1)C(F)(F)F)C(C)(C)C)C(=O)C(=O)NC1CC1` (single isomer, unassigned) [Formula I isomer A], the IC50 in experiment [1] (setting [4]) worked out at 4.1 nM. Also, in experiment [2], the “inhibition of HCV replicon RNA” value amounted to 41%.

Consider `CCC[C@H](NC(=O)[C@@H]1[C@H]2CCC[C@H]2CN1C(=O)[C@@H](NC(C(NC(=O)c1cnccn1)C1CCCCC1)C(F)(F)F)C(C)(C)C)C(=O)C(=O)NC1CC1` (single isomer, unassigned) [Formula I isomer B], for which, in experiment [1] (setting [3]), the IC50 is 0.6 nM. The “inhibition of HCV replicon RNA” value in experiment [2] was 33%.

Take `CCC[C@H](NC(=O)[C@@H]1[C@H]2CCC[C@H]2CN1C(=O)[C@@H](NC(C(NC(=O)c1cnccn1)C1CCCCC1)C(F)(F)F)C(C)(C)C)C(=O)C(=O)NC1CC1` (single isomer, unassigned) [Formula I isomer D]: in experiment [1] (setting [3]), the 50% inhibitory concentration (IC50) worked out at 0.6 nM. Besides, in experiment [2], the “inhibition of HCV replicon RNA” value was determined as 29%.

Turning to `CCC[C@H](NC(=O)[C@@H]1[C@H]2CCC[C@H]2CN1C(=O)[C@@H](NC(=O)[C@@H](NC(c1cnccn1)C(F)(F)F)C1CCCCC1)C(C)(C)C)C(=O)C(=O)NC1CC1` (single isomer, unassigned) [Formula I isomer E], the IC50 in experiment [1] (setting [4]) was 1.8 nM.

The values are drawn from US8106059B2, “Substituted pyrazines that inhibit protease cathepsin S and HCV replication” (ViroBay, Inc., priority 2007, dated 2012).
